Reference: patent US20070281992A1, “COMBINATION OF GYRASE B INHIBITORS AND PROTEIN SYNTHESIS INHIBITORS AND USES THEREOF” (priority 2006, published 2007)
Like-named read-outs stand apart in the source and are kept apart here.

Assays:
Format in all cases: cell-based
[1] = tested on: Unconfirmed Vancomycin-intermediate Staphylococcus epidermidis Isolates; experiment: MIC assay (NCCLS broth dilution), unconfirmed VISE isolates; settings: Staphylococcus epidermidis, read-out: Minimal Inhibitory Concentration, Unconfirmed VISE isolate 2026, 03MAR06
Procedure, shortened: (§1)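 MIC is read as the value from NCCLS-standard broth dilution in Mueller Hinton II medium. Each agent spanned 11 two-fold dilutions, with novobiocin paired to tetracycline or minocycline at a 2.5:1 ratio reflecting serum levels.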

[2] = tested on: Methicillin-Resistant Staphylococcus aureus Isolates; experiment: MIC assay (NCCLS broth dilution), MRSA clinical isolates; settings: for MIC: Staphylococcus aureus
Procedure, shortened: as §1

[3] = tested on: Vancomycin-intermediate Staphylococcus epidermidis Isolates; experiment: MIC assay (NCCLS broth dilution), VISE isolates
Procedure, shortened: as §1

CN[C@H](CC(C)C)C(=O)N[C@H]1C(=O)N[C@@H](CC(N)=O)C(=O)N[C@H]2C(=O)N[C@H]3C(=O)N[C@H](C(=O)N[C@H](C(=O)O)c4cc(O)cc(O)c4-c4cc3ccc4O)[C@H](O)c3ccc(c(Cl)c3)Oc3cc2cc(c3O[C@@H]2O[C@H](CO)[C@@H](O)[C@H](O)[C@H]2O[C@H]2C[C@](C)(N)[C@H](O)[C@H](C)O2)Oc2ccc(cc2Cl)[C@H]1O [VA, vancomycin]
1 µg/mL: MIC ([2]; read-out: Minimal Inhibitory Concentration, MRSA isolate 757, 24FEB06) | MIC ([2]; read-out: Minimal Inhibitory Concentration, MRSA isolate 758, 03MAR06) | MIC ([2]; read-out: Minimal Inhibitory Concentration, MRSA isolate 758, 24FEB06) | MIC ([2]; read-out: Minimal Inhibitory Concentration, MRSA isolate 760, 03MAR06) | MIC ([2]; read-out: Minimal Inhibitory Concentration, MRSA isolate 760, 24FEB06) | MIC ([2]; read-out: Minimal Inhibitory Concentration, MRSA isolate 763, 22FEB06) | MIC ([2]; read-out: Minimal Inhibitory Concentration, MRSA isolate 771, 22FEB06) | MIC ([2]; read-out: Minimal Inhibitory Concentration, MRSA isolate 774, 24FEB06) | MIC ([2]; read-out: Minimal Inhibitory Concentration, MRSA isolate 775, 24FEB06) | MIC ([2]; read-out: Minimal Inhibitory Concentration, MRSA isolate 776, 24FEB06) | MIC ([2]; read-out: Minimal Inhibitory Concentration, MRSA isolate 778, 24FEB06) | MIC ([2]; read-out: Minimal Inhibitory Concentration, MRSA isolate 886, 24FEB06) | MIC ([2]; read-out: Minimal Inhibitory Concentration, MRSA isolate 888, 24FEB06) | MIC ([2]; read-out: Minimal Inhibitory Concentration, MRSA isolate 889, 24FEB06) | MIC ([2]; read-out: Minimal Inhibitory Concentration, MRSA isolate 1004, 24FEB06) | MIC ([2]; read-out: Minimal Inhibitory Concentration, MRSA isolate 1025, 22FEB06) | MIC ([2]; read-out: Minimal Inhibitory Concentration, MRSA isolate 1222, 03MAR06) | MIC ([2]; read-out: Minimal Inhibitory Concentration, MRSA isolate 1222, 24FEB06) | MIC ([2]; read-out: Minimal Inhibitory Concentration, MRSA isolate 1653, 03MAR06) | MIC ([2]; read-out: Minimal Inhibitory Concentration, MRSA isolate 1659, 03MAR06) | MIC ([2]; read-out: Minimal Inhibitory Concentration, MRSA isolate 1661, 03MAR06) | MIC ([2]; read-out: Minimal Inhibitory Concentration, MRSA isolate 1730, 24FEB06) | MIC ([2]; read-out: Minimal Inhibitory Concentration, MRSA isolate 2011, 24FEB06)
8 µg/mL: MIC Range ([3]; 4 VISE isolates, combinations at 2.5:1) | MIC ([3]; Staphylococcus epidermidis, read-out: Minimal Inhibitory Concentration) | Minimal Inhibitory Concentration ([3]; VISE isolate 2020, 09MAR06) | Minimal Inhibitory Concentration ([3]; VISE isolate 2021, 09MAR06) | Minimal Inhibitory Concentration ([3]; VISE isolate 2023, 03MAR06)
4 µg/mL: MIC [1]
0.5 µg/mL: MIC ([2]; read-out: Minimal Inhibitory Concentration, MRSA isolate 765, 22FEB06) | MIC ([2]; read-out: Minimal Inhibitory Concentration, MRSA isolate 766, 22FEB06) | MIC ([2]; read-out: Minimal Inhibitory Concentration, MRSA isolate 767, 22FEB06) | MIC ([2]; read-out: Minimal Inhibitory Concentration, MRSA isolate 768, 22FEB06) | MIC ([2]; read-out: Minimal Inhibitory Concentration, MRSA isolate 769, 22FEB06) | MIC ([2]; read-out: Minimal Inhibitory Concentration, MRSA isolate 770, 22FEB06) | MIC ([2]; read-out: Minimal Inhibitory Concentration, MRSA isolate 772, 22FEB06) | MIC ([2]; read-out: Minimal Inhibitory Concentration, MRSA isolate 773, 24FEB06) | MIC ([2]; read-out: Minimal Inhibitory Concentration, MRSA isolate 777, 24FEB06) | MIC ([2]; read-out: Minimal Inhibitory Concentration, MRSA isolate 887, 24FEB06) | MIC ([2]; read-out: Minimal Inhibitory Concentration, MRSA isolate 1010, 22FEB06) | MIC ([2]; read-out: Minimal Inhibitory Concentration, MRSA isolate 1012, 22FEB06) | MIC ([2]; read-out: Minimal Inhibitory Concentration, MRSA isolate 1013, 22FEB06) | MIC ([2]; read-out: Minimal Inhibitory Concentration, MRSA isolate 1014, 22FEB06) | MIC ([2]; read-out: Minimal Inhibitory Concentration, MRSA isolate 1015, 22FEB06) | MIC ([2]; read-out: Minimal Inhibitory Concentration, MRSA isolate 1016, 22FEB06) | MIC ([2]; read-out: Minimal Inhibitory Concentration, MRSA isolate 1017, 22FEB06) | MIC ([2]; read-out: Minimal Inhibitory Concentration, MRSA isolate 1021, 22FEB06) | MIC ([2]; read-out: Minimal Inhibitory Concentration, MRSA isolate 1022, 22FEB06) | MIC ([2]; read-out: Minimal Inhibitory Concentration, MRSA isolate 1023, 22FEB06) | MIC ([2]; read-out: Minimal Inhibitory Concentration, MRSA isolate 1024, 22FEB06) | MIC ([2]; read-out: Minimal Inhibitory Concentration, MRSA isolate 1135, 22FEB06) | MIC ([2]; read-out: Minimal Inhibitory Concentration, MRSA isolate 1136, 22FEB06) | MIC ([2]; read-out: Minimal Inhibitory Concentration, MRSA isolate 1137, 22FEB06) | MIC ([2]; read-out: Minimal Inhibitory Concentration, MRSA isolate 1138, 22FEB06) | MIC ([2]; read-out: Minimal Inhibitory Concentration, MRSA isolate 1658, 03MAR06) | MIC ([2]; read-out: Minimal Inhibitory Concentration, MRSA isolate 2010, 24FEB06)
2 µg/mL: MIC ([2]; read-out: Minimal Inhibitory Concentration, MRSA isolate 1729, 03MAR06) | MIC ([2]; read-out: Minimal Inhibitory Concentration, MRSA isolate 2009, 24FEB06)
.5 to 2 µg/mL: MIC Range ([2]; 52 MRSA isolates, combinations at 2.5:1, given as NB/partner)
